Columns and labels:
[1] = system: Patients undergoing bilateral nerve-sparing radical retropubic prostatectomy (bnsrrp); assay: Randomised, double-blind placebo-controlled clinical trial: IIEF-15 scores after 4 months' treatment, bnsrrp patients; format: in vivo, human
Method: (§1) To assess the activity of the combination according to the invention for the treatment of erectile dysfunction, a randomised, double-blind placebo-controlled clinical trial was conducted.
(§2) The patients entered into the trial had to meet the following inclusion criteria: • erectile dysfunction secondary to radical retropubic prostatectomy, with or without bilateral sparing of the neurovascular bundles, in patients in whom the prostatectomy had been performed at least 6 months but less than 2 years prior to entry into the clinical trial; • complete erectile function prior to the prostatectomy (this information had to be confirmed by the partner or documented in the patient's hospital file; • not on medical treatment for prostate cancer; • not on treatment for erectile dysfunction before or after prostatectomy; • normal total and free prostate antigen values; • involvement in a heterosexual relationship for at least 6 months prior to surgery.
(§3) The patients recruited into the study were divided into two main groups on the basis of whether or not they had undergone bilateral nerve sparing surgery (rrp and bnsrrp).
(§4) These two groups were further subdivided into the following subsets:
(§5) c) sildenafil 100 mg+propionyl L-carnitine 2 g+acetyl L-carnitine 2 g;
(§6) d) propionyl L-carnitine 2 g;
(§7) e) acetyl L-carnitine 2 g.
(§8) f) propionyl L-carnitine 2 g+acetyl L-carnitine 2 g;
(§9) g) sildenafil 100 mg+propionyl L-carnitine 2 g;
(§10) h) sildenafil 100 mg+acetyl L-carnitine 2 g.
(§11) The carnitines (acetyl L-carnitine and propionyl L-carnitine) were administered orally twice daily (1 g×2/day).
(§12) Sildenafil was administered (as required) and taken 1-2 hours before sexual intercourse at a dose of 100 mg.
(§13) The placebo was administered in the place of acetyl L-carnitine and/or propionyl L-carnitine and/or sildenafil.
(§14) After 4 months' treatment the following variables were analysed:
(§15) 1. erectile function (evaluated by “IIEF-15” scores: IIEF=International Index of Erectile Function);
(§16) 2. satisfaction with sexual intercourse (IIEF-15);
(§17) 4. general sexual well-being (IIEF-15);

[2] = system: Patients undergoing bilateral nerve-sparing radical retropubic prostatectomy (bnsrrp); assay: Clinical trial: recording of nocturnal penile tumescence (NPT) with RigiScan, bnsrrp patients; format: in vivo, human; conditions: total duration over three nights
Method: as §1, §2, §3, §4, §5, §6, §7, §8, §9, §10, §11, §12, §13, §14
(§18) 5. recording of nocturnal penile tumescence (NPT) [evaluated with RigiScan (Dacomed-Minnesota). A >70% increase in rigidity compared to baseline at the base of the penis and >60% at the upper end of the penis, a >2 cm increase in circumference at the upper end of the penis and >3 cm at the base were considered “complete erection”. The total duration (minutes) of the recording period on three nights was assessed.

[3] = system: Patients undergoing radical retropubic prostatectomy (rrp) without bilateral sparing of the neurovascular bundles; assay: Randomised, double-blind placebo-controlled clinical trial: IIEF-15 scores after 4 months' treatment, rrp patients; format: in vivo, human; conditions: rrp patients without nerve sparing
Method: as §1, §2, §3, §4, §5, §6, §7, §8, §9, §10, §11, §12, §13, §14, §15, §16, §17

[4] = system: Patients undergoing radical retropubic prostatectomy (rrp) without bilateral sparing of the neurovascular bundles; assay: Clinical trial: recording of nocturnal penile tumescence (NPT) with RigiScan, rrp patients; format: in vivo, human; conditions: rrp patients without nerve sparing, total duration over three nights
Method: as §1, §2, §3, §4, §5, §6, §7, §8, §9, §10, §11, §12, §13, §14, §18

patients undergoing rrp = conditions: cited from earlier work
[5] = system: patients undergoing bnsrrp; conditions: cited from earlier work
[6] = after therapy (4 months' treatment)

## CC(=O)O[C@H](CC(=O)[O-])C[N+](C)(C)C [Acetyl L-carnitine 2 g, acetyl L-carnitine]
[1]; [6]
  Erectile function, mean ± s.d.: 17.2 ± 3.5 IIEF 15 Score
  General sexual well-being, mean ± s.d.: 3.9 ± 1.1 IIEF 15 score
  Orgasm, mean ± s.d.: 4.0 ± 0.9 IIEF 15 score
  Satisfaction with sexual intercourse, mean ± s.d.: 4.0 ± 1.1 IIEF 15 score
[1]; before therapy (baseline)
  Erectile function, mean ± s.d.: 11.3 ± 3.8 IIEF 15 Score
  General sexual well-being, mean ± s.d.: 2.9 ± 1.0 IIEF 15 score
  Orgasm, mean ± s.d.: 3.2 ± 1.1 IIEF 15 score
  Satisfaction with sexual intercourse, mean ± s.d.: 3.1 ± 1.1 IIEF 15 score
[2]; [6]
  Recording of nocturnal penile tumescence (NPT), mean ± s.d.: 79.0 ± 12.3 min
[2]; before therapy (baseline)
  Recording of nocturnal penile tumescence (NPT), mean ± s.d.: 70.8 ± 14.9 min
[3]; [6]
  Erectile function, mean ± s.d.: 4.1 ± 1.0 IIEF 15 score
  General sexual well-being, mean ± s.d.: 1.2 ± 0.5 IIEF 15 score
  Orgasm, mean ± s.d.: 0.9 ± 0.4 IIEF 15 score
  Satisfaction with sexual intercourse, mean ± s.d.: 1.9 ± 0.6 IIEF 15 score
[3]; before therapy (baseline)
  Erectile function, mean ± s.d.: 3.2 ± 1.1 IIEF 15 score
  General sexual well-being, mean ± s.d.: 1.0 ± 0.4 IIEF 15 score
  Orgasm, mean ± s.d.: 0.8 ± 0.6 IIEF 15 score
  Satisfaction with sexual intercourse, mean ± s.d.: 1.8 ± 0.8 IIEF 15 score
[4]; [6]
  Recording of nocturnal penile tumescence (NPT), mean ± s.d.: 38.2 ± 5.7 min
[4]; before therapy (baseline)
  Recording of nocturnal penile tumescence (NPT), mean ± s.d.: 37.7 ± 8.8 min

## CCC(=O)O[C@H](CC(=O)[O-])C[N+](C)(C)C [Propionyl L-carnitine 2 g, propionyl L-carnitine]
[1]; [6]
  Erectile function, mean ± s.d.: 18.1 ± 3.2 IIEF 15 Score
  General sexual well-being, mean ± s.d.: 4.1 ± 0.9 IIEF 15 score
  Orgasm, mean ± s.d.: 4.1 ± 1.1 IIEF 15 score
  Satisfaction with sexual intercourse, mean ± s.d.: 3.9 ± 1.1 IIEF 15 score
[1]; before therapy (baseline)
  Erectile function, mean ± s.d.: 12.2 ± 3.9 IIEF 15 Score
  General sexual well-being, mean ± s.d.: 2.9 ± 1.6 IIEF 15 score
  Orgasm, mean ± s.d.: 3.0 ± 1.1 IIEF 15 score
  Satisfaction with sexual intercourse, mean ± s.d.: 3.2 ± 1.2 IIEF 15 score
[2]; [6]
  Recording of nocturnal penile tumescence (NPT), mean ± s.d.: 77.1 ± 16.1 min
[2]; before therapy (baseline)
  Recording of nocturnal penile tumescence (NPT), mean ± s.d.: 68.2 ± 13.5 min
[3]; [6]
  Erectile function, mean ± s.d.: 4.0 ± 1.1 IIEF 15 score
  General sexual well-being, mean ± s.d.: 1.4 ± 0.5 IIEF 15 score
  Orgasm, mean ± s.d.: 1.0 ± 0.3 IIEF 15 score
  Satisfaction with sexual intercourse, mean ± s.d.: 1.9 ± 0.6 IIEF 15 score
[3]; before therapy (baseline)
  Erectile function, mean ± s.d.: 3.3 ± 1.1 IIEF 15 score
  General sexual well-being, mean ± s.d.: 1.3 ± 0.5 IIEF 15 score
  Orgasm, mean ± s.d.: 0.7 ± 0.3 IIEF 15 score
  Satisfaction with sexual intercourse, mean ± s.d.: 1.7 ± 0.4 IIEF 15 score
[4]; [6]
  Recording of nocturnal penile tumescence (NPT), mean ± s.d.: 36.4 ± 5.3 min
[4]; before therapy (baseline)
  Recording of nocturnal penile tumescence (NPT), mean ± s.d.: 35.0 ± 9.1 min

## CCCc1nn(C)c2c(=O)[nH]c(-c3cc(S(=O)(=O)N4CCN(C)CC4)ccc3OCC)nc12 [Sildenafil 100 mg, sildenafil]
[1]; [6]
  Erectile function, mean ± s.d.: 21.7 ± 6.8 IIEF 15 Score
  General sexual well-being, mean ± s.d.: 5.4 ± 2.7 IIEF 15 score
  Orgasm, mean ± s.d.: 5.9 ± 2.9 IIEF 15 score
  Satisfaction with sexual intercourse, mean ± s.d.: 4.8 ± 2.5 IIEF 15 score
[1]; before therapy (baseline)
  Erectile function, mean ± s.d.: 11.9 ± 4.0 IIEF 15 Score
  General sexual well-being, mean ± s.d.: 2.7 ± 1.0 IIEF 15 score
  Orgasm, mean ± s.d.: 3.0 ± 0.9 IIEF 15 score
  Satisfaction with sexual intercourse, mean ± s.d.: 3.1 ± 1.1 IIEF 15 score
[2]; [6]
  Recording of nocturnal penile tumescence (NPT), mean ± s.d.: 85.9 ± 14.3 min
[2]; before therapy (baseline)
  Recording of nocturnal penile tumescence (NPT), mean ± s.d.: 70.4 ± 13.2 min
[3]; [6]
  Erectile function, mean ± s.d.: 9.2 ± 1.9 IIEF 15 score
  General sexual well-being, mean ± s.d.: 2.4 ± 2.0 IIEF 15 score
  Orgasm, mean ± s.d.: 2.2 ± 0.9 IIEF 15 score
  Satisfaction with sexual intercourse, mean ± s.d.: 2.9 ± 1.6 IIEF 15 score
[3]; before therapy (baseline)
  Erectile function, mean ± s.d.: 3.8 ± 2.9 IIEF 15 score
  General sexual well-being, mean ± s.d.: 1.1 ± 0.8 IIEF 15 score
  Orgasm, mean ± s.d.: 0.9 ± 0.6 IIEF 15 score
  Satisfaction with sexual intercourse, mean ± s.d.: 1.3 ± 0.8 IIEF 15 score
[4]; [6]
  Recording of nocturnal penile tumescence (NPT), mean ± s.d.: 39.1 ± 7.9 min
[4]; before therapy (baseline)
  Recording of nocturnal penile tumescence (NPT), mean ± s.d.: 37.1 ± 8.5 min
Patients undergoing rrp
  Patients with recovery of sexual function: approximately 15%
[5]
  Patients with recovery of sexual function: approximately 45%

From patent US20080090906A1, “Use of Acetyl L-Carnitine In Combination With Propionyl L-Carnitine and Sildenafil for the Treatment of Erectile Dysfunction” (SIGMA-TAU INDUSTRIE FARMACEUTICHE RIUNITE S.P.A., priority 2004, published 2008)
